Assay [1] concerns the target T1, Glycogen phosphorylase, liver form (Homo sapiens) (UniProt P06737).
T1 sequence (whole entry): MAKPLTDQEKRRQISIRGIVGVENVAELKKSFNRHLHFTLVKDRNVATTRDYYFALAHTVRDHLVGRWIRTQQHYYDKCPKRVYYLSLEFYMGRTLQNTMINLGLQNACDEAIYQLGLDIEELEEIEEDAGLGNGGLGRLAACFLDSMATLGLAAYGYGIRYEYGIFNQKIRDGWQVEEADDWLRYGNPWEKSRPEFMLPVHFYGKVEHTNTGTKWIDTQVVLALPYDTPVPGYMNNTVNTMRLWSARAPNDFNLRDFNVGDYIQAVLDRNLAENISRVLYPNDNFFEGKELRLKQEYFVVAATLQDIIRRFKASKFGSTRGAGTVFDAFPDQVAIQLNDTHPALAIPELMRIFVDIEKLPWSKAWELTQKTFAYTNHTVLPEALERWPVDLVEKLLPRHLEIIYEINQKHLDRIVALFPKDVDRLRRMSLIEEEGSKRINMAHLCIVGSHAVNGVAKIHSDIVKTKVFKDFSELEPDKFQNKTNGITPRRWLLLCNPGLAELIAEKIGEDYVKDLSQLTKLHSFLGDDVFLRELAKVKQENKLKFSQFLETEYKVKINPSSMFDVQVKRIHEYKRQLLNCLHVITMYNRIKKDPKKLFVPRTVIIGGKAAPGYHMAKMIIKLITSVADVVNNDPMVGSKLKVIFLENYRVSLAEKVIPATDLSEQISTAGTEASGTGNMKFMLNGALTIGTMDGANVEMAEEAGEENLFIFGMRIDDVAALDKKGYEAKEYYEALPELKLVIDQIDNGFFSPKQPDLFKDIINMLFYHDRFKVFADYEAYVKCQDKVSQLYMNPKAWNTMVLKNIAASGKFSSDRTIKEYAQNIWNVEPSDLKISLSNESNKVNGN
In words: Inhibition of recombinant human liver GPa by multienzyme coupled assay at 10 uM.

Assay [2] concerns the target T2, Glycogen phosphorylase, liver form (Homo sapiens, UniProt P06737).
T2 sequence (P06737 whole entry): T1 sequence (whole entry)
In words: Inhibition of recombinant human liver GPa by multienzyme coupled assay.

Assay [3] has as its system Hepatocyte. The assay is described as follows: Inhibition of glucose output in glucagon challenged rat hepatocytes. It counts as functional, cell-based.
For assay [4], the target named is T1, Glycogen phosphorylase, liver form (Homo sapiens). The assay is described as follows: Inhibition of recombinant human liver GPa by multienzyme coupled assay at 100 uM.

Bounds are passed on as bounds.

Broadly, the inhibition is the drop in the measured response relative to a control, in per cent. By IC50 is commonly meant the concentration that inhibits the measured activity by half.

Consider `CN(C)C(=O)[C@H](Cc1ccccc1)NC(=O)c1cc2c(Br)c(Br)sc2[nH]1`, for which the inhibition in assay [1] was 20%.
As to `CNC(=O)[C@H](Cc1ccccc1)NC(=O)c1cc2sc(Cl)cc2[nH]1`, the IC50 in assay [2] came to 0.577 µM.
With `O=C(NC1Cc2ccccc2NC1=O)c1cc2cc(Cl)ccc2[nH]1` (configuration not stated), the IC50 turned out to be 0.086 µM in assay [2] and 7 µM in assay [3].
For `CN(C)C(=O)[C@H](Cc1ccccc1)NC(=O)c1cc2cc(Cl)ccc2[nH]1` the same measures were 0.051 µM and 2.6 µM.
Taken in the same sequence, the figures for `CN(C)C(=O)[C@H](Cc1ccccc1)NC(=O)c1cc2sc(Br)c(Br)c2n1C` were more than 10 µM and 1.1 µM.
For the compound `CN(C)C(=O)[C@H](Cc1ccccc1)NC(=O)c1cc2sccc2[nH]1`, in assay [4], the inhibition came out at 35%.
For the compound `CN(C)C(=O)[C@H](Cc1ccccc1)NC(=O)c1cc2cc(Cl)sc2[nH]1`, the IC50 in assay [2] was found to be 0.017 µM; in assay [3], 1.4 µM.
In the case of `CNC(=O)[C@H](Cc1ccccc1)NC(=O)c1cc2scc(Cl)c2[nH]1`, the IC50 in assay [2] amounted to 0.39 µM.
Regarding `CN(C)C(=O)[C@H](Cc1ccccc1)NC(=O)c1cc2sc(Br)c(Br)c2[nH]1`, the IC50 in assay [2] came out at 0.023 µM.
For the compound `CN(C)C(=O)[C@H](Cc1ccccc1)NC(=O)c1cc2cc(Br)sc2[nH]1`, the IC50 in assay [2] amounted to 0.031 µM; in assay [3] it was 1.6 µM.
`O=C(NC1Cc2ccccc2C1)c1cc2sc(Cl)c(Cl)c2[nH]1`: the IC50 in assay [2] was determined as 0.197 µM.
Take `O=C(N[C@@H]1Cc2ccccc2[C@H]1O)c1cc2cc(Cl)sc2[nH]1`: the IC50 in assay [3] stood at 3.6 µM.
Consider `O=C(N[C@@H]1Cc2ccccc2[C@H]1O)c1cc2sc(Cl)c(Cl)c2[nH]1`, for which the figures for the IC50 in assay [2] and in assay [3] were 0.009 µM and 1.5 µM, respectively.
On to `CN(C)C(=O)[C@H](Cc1ccccc1)NC(=O)c1cc2ccsc2[nH]1`, for which the 50% inhibitory concentration (IC50) in assay [2] amounted to 2.31 µM.
Consider `CN(C)C(=O)[C@H](Cc1ccccc1)NC(=O)c1cc2sc(Cl)c(Cl)c2[nH]1`, for which the values for the IC50 in assay [2] and in assay [3] were 0.005 µM and 1 µM, respectively.
`O=C(N[C@@H]1Cc2ccc(Cl)cc2[C@H]1O)c1cc2sc(Cl)c(Cl)c2[nH]1`: the IC50 in assay [2] was 0.09 µM.
On the same count and under the same terms, the figure for `O=C(NC1Cc2ccccc2C1)c1cc2cc(Cl)sc2[nH]1` is 0.806 µM.
On to `O=C(N[C@@H]1Cc2ccc(F)cc2[C@H]1O)c1cc2sc(Cl)c(Cl)c2[nH]1`, for which the IC50 in assay [2] was 0.049 µM; in assay [3], 1.3 µM.
Take `CN(C)C(=O)[C@H](Cc1ccccc1)N(C)C(=O)c1cc2sc(Br)c(Br)c2[nH]1`: the 50% inhibitory concentration (IC50) in assay [2] is more than 10 µM.

The record behind these values is ChEMBL document CHEMBL1139706, “Novel thienopyrrole glycogen phosphorylase inhibitors: synthesis, in vitro SAR and crystallographic studies” (Bioorg Med Chem Lett, 2006).
